According to ChEMBL document CHEMBL1201862, “PubChem BioAssay data set” (2004):
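Values below derive from 48-hour exposures of cells grown in 96-well plates, with endpoints linearly interpolated between the two concentrations bracketing the appropriate inhibition level. GI50: concentration for 50% inhibition of growth.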 Activity calls are given as the source filed them. Cut-off read from the data, not from the text of the source: active = GI50 up to about 1.1 µM and inactive = higher.

Assays:
Experiment in all cases: NCI tumour cell line growth inhibition, 48 h
786-0 = system: 786-0
A498 = system: A498
HOP-62 = system: HOP-62
Hs-578T = system: Hs-578T
M14 = system: M14
MCF7 = system: MCF7
MDA-MB-231 = system: MDA-MB-231
MDA-MB-435 = system: MDA-MB-435
NCI-H226 = system: NCI-H226
NCI/ADR-RES = system: NCI/ADR-RES
OVCAR-5 = system: OVCAR-5
PC-3 = system: PC-3
SF-268 = system: SF-268
T47D = system: T47D
UACC-257 = system: UACC-257
DU-145 = system: DU-145
SN12C = system: SN12C

CN(NC(=O)c1ccc(Cl)cc1)C1=NCCCCN1
GI50 (786-0): > 100 µM (inactive)
GI50 (A498): > 100 µM (inactive)
GI50 (HOP-62): > 100 µM (inactive)
GI50 (Hs-578T): > 100 µM (inactive)
GI50 (M14): > 100 µM (inactive)
GI50 (MCF7): > 100 µM (inactive)
GI50 (MDA-MB-231): > 100 µM (inactive)
GI50 (MDA-MB-435): > 100 µM (inactive)
GI50 (NCI-H226): > 100 µM (inactive)
GI50 (NCI/ADR-RES): > 100 µM (inactive)
GI50 (OVCAR-5): > 100 µM (inactive)
GI50 (PC-3): > 100 µM (inactive)
GI50 (SF-268): > 100 µM (inactive)
GI50 (T47D): > 100 µM (inactive)
GI50 (UACC-257): > 100 µM (inactive)

Nc1ccc(OCC(O)N2C(=O)c3ccccc3C2=O)cc1 (stereo not given)
GI50 (DU-145): > 100 µM (inactive)
GI50 (HOP-62): > 100 µM (inactive)
GI50 (M14): > 100 µM (inactive)
GI50 (MCF7): > 100 µM (inactive)
GI50 (MDA-MB-231): > 100 µM (inactive)
GI50 (MDA-MB-435): > 100 µM (inactive)
GI50 (NCI/ADR-RES): > 100 µM (inactive)
GI50 (OVCAR-5): > 100 µM (inactive)
GI50 (PC-3): > 100 µM (inactive)
GI50 (SF-268): > 100 µM (inactive)
GI50 (T47D): > 100 µM (inactive)
GI50 (UACC-257): > 100 µM (inactive)

C[Si](C)(OCCS(=O)(=O)O)C1S(=O)(=O)OCCOS1(=O)=O
GI50 (786-0): 36.1 µM (inactive)
GI50 (A498): > 100 µM (inactive)
GI50 (DU-145): 80.9 µM (inactive)
GI50 (HOP-62): 56.4 µM (inactive)
GI50 (M14): 48.2 µM (inactive)
GI50 (MCF7): 36.6 µM (inactive)
GI50 (MDA-MB-231): > 100 µM (inactive)
GI50 (MDA-MB-435): 43.5 µM (inactive)
GI50 (NCI-H226): 64.9 µM (inactive)
GI50 (NCI/ADR-RES): 45.4 µM (inactive)
GI50 (OVCAR-5): > 100 µM (inactive)
GI50 (PC-3): 93.5 µM (inactive)
GI50 (SF-268): 24 µM (inactive)
GI50 (SN12C): > 100 µM (inactive)
GI50 (T47D): 36.6 µM (inactive)
GI50 (UACC-257): > 100 µM (inactive)

COC1C(O)C(C)OC(O[C@@H]2C[C@H]3CC[C@@H]4[C@H](CC[C@]5(C)[C@@H](C6=CC(=O)OC6)CC[C@]45O)[C@@]3(C)[C@H](O)C2)C1O (stereo not given in full)
GI50 (786-0): 0.149 µM (active)
GI50 (A498): 0.0525 µM (active)
GI50 (DU-145): < 0.0302 µM (active)
GI50 (HOP-62): 0.0333 µM (active)
GI50 (Hs-578T): 0.182 µM (active)
GI50 (M14): 0.0741 µM (active)
GI50 (MDA-MB-231): 0.313 µM (active)
GI50 (MDA-MB-435): 0.0883 µM (active)
GI50 (NCI-H226): 0.151 µM (active)
GI50 (NCI/ADR-RES): < 0.0443 µM (active)
GI50 (OVCAR-5): 0.114 µM (active)
GI50 (PC-3): 0.0755 µM (active)
GI50 (SF-268): < 0.0272 µM (active)
GI50 (SN12C): < 0.01 µM (active)
GI50 (T47D): 0.111 µM (active)
GI50 (UACC-257): 0.1 µM (active)

CC1C(c2ccc(N(C)C)cc2)c2cc3c(cc2OC1N1CCCC1)OCO3 (stereo not given)
GI50 (786-0): 43 µM (inactive)
GI50 (A498): 20.7 µM (inactive)
GI50 (DU-145): 66.2 µM (inactive)
GI50 (HOP-62): 25.2 µM (inactive)
GI50 (Hs-578T): 28.8 µM (inactive)
GI50 (M14): 31.9 µM (inactive)
GI50 (MCF7): 24.3 µM (inactive)
GI50 (MDA-MB-435): 16.6 µM (inactive)
GI50 (NCI/ADR-RES): 33.6 µM (inactive)
GI50 (OVCAR-5): > 87.1 µM (inactive)
GI50 (PC-3): 37.3 µM (inactive)
GI50 (SF-268): 66.8 µM (inactive)
GI50 (SN12C): 63.1 µM (inactive)
GI50 (T47D): 54.3 µM (inactive)
GI50 (UACC-257): > 92.5 µM (inactive)

CC(=O)C1C(=O)C(=O)N(c2ccc(Cl)c(Cl)c2)C1=O (stereo not given)
GI50 (786-0): > 100 µM (inactive)
GI50 (DU-145): > 100 µM (inactive)
GI50 (HOP-62): > 100 µM (inactive)
GI50 (M14): > 100 µM (inactive)
GI50 (MCF7): > 100 µM (inactive)
GI50 (MDA-MB-231): > 100 µM (inactive)
GI50 (MDA-MB-435): > 100 µM (inactive)
GI50 (NCI-H226): > 100 µM (inactive)
GI50 (NCI/ADR-RES): > 100 µM (inactive)
GI50 (OVCAR-5): > 100 µM (inactive)
GI50 (PC-3): > 100 µM (inactive)
GI50 (SN12C): > 100 µM (inactive)
GI50 (T47D): > 100 µM (inactive)
GI50 (UACC-257): > 100 µM (inactive)

C=C(CC[C@@H](C)[C@H]1CC[C@@]2(C)C3=C(CC[C@]12C)[C@@]1(C)CC[C@H](O)[C@@H](C)C1CC3)C(C)C (stereo not given in full)
GI50 (786-0): 0.984 µM (active)
GI50 (A498): 1.41 µM (inactive)
GI50 (HOP-62): 0.879 µM (active)
GI50 (Hs-578T): 1.6 µM (inactive)
GI50 (M14): 1.17 µM (inactive)
GI50 (MCF7): 1.47 µM (inactive)
GI50 (MDA-MB-231): 1.5 µM (inactive)
GI50 (MDA-MB-435): 1.32 µM (inactive)
GI50 (NCI-H226): 1.81 µM (inactive)
GI50 (NCI/ADR-RES): 1.4 µM (inactive)
GI50 (OVCAR-5): 1.42 µM (inactive)
GI50 (PC-3): 1.07 µM (active)
GI50 (SN12C): 1.44 µM (inactive)
GI50 (UACC-257): 1.49 µM (inactive)

CC[C@@]1(N(C)C)C(=O)OCc2c1cc1n(c2=O)Cc2cc3ccccc3nc2-1
GI50 (786-0): 25.8 µM (inactive)
GI50 (A498): 42.7 µM (inactive)
GI50 (DU-145): 21.1 µM (inactive)
GI50 (HOP-62): 16.9 µM (inactive)
GI50 (M14): > 100 µM (inactive)
GI50 (MCF7): 32.1 µM (inactive)
GI50 (MDA-MB-231): 96.6 µM (inactive)
GI50 (MDA-MB-435): > 100 µM (inactive)
GI50 (NCI-H226): 22.4 µM (inactive)
GI50 (NCI/ADR-RES): 21.3 µM (inactive)
GI50 (OVCAR-5): > 100 µM (inactive)
GI50 (PC-3): 58.3 µM (inactive)
GI50 (SF-268): 17.3 µM (inactive)
GI50 (T47D): 18.9 µM (inactive)
GI50 (UACC-257): > 100 µM (inactive)

C#CCCCC(=C)C[C@H](OCc1ccccc1)[C@H]1OC(=O)[C@@H]1C
GI50 (A498): > 100 µM (inactive)
GI50 (HOP-62): > 100 µM (inactive)
GI50 (M14): 81.3 µM (inactive)
GI50 (MCF7): 37.2 µM (inactive)
GI50 (MDA-MB-231): 13.2 µM (inactive)
GI50 (MDA-MB-435): 48.6 µM (inactive)
GI50 (NCI-H226): 96.4 µM (inactive)
GI50 (NCI/ADR-RES): 40.9 µM (inactive)
GI50 (OVCAR-5): > 100 µM (inactive)
GI50 (PC-3): 48.2 µM (inactive)
GI50 (SF-268): > 100 µM (inactive)
GI50 (SN12C): > 100 µM (inactive)
GI50 (UACC-257): > 100 µM (inactive)
